According to patent US20220296590A1, “STEREOISOMERS OF THE COMPOUND 3-(BENZO[D][1,3]DIOXOL-5-YL)-7-(1-HYDROXYPROPAN-2-YL)-1-(1H-INDOL-3-YL)-6,7-DIHYDRO-3H-OXAZOL[3,4-A]PYRAZINE-5,8-DIONE AND USE THEREOF AS AN ANTITUMOR AGENT AND PHOSPHODIESTERASE ENZYME INHIBITOR” (BIOLAB SANUS FARMACEUTICA LTDA, priority 2019, published 2022):
One block for each compound: values may come before it.

Legend:
[1] = system: LNCAP-human prostate cancer cells; experiment: Antiproliferative effect in tumor cell culture (CYQuant intracellular DNA, 72 hours), LNCAP; type: cell-based; settings: for % Cell Proliferation Inhibition (intracellular DNA) LNCAP (average ± E.P.M.): 72 hours
Procedure: (§1) For the execution of the assay, the compounds are diluted in DMSO 100% (v/v) at a concentration of 1000 μM and subsequently diluted in a Sodium Chloride solution 0.9% to obtain the storage solutions of interest for use in the assays. The final concentration of interest will be directly diluted in the cell culture medium. For the assay there are used the following tumor cell lineages: PC3-human prostate cancer cells; LNCAP-human prostate cancer cells; DU145-human prostate cancer; MNK45-human gastric cancer and RT4-human bladder cancer cells. The tumor cell lineages are maintained in culture according to standard procedures established by the Cell Bank of Rio de Janeiro (lineage place of origin). For the assay, the tumor cells are seeded in the concentration of 10.000 cells per well (final volume of the reaction of […]), the plate is incubated for 8 hours, for the cells to adhere to the wall of the wells. After this period, the plate is divided in groups: • (a) test group: […] of the samples were added (test compound) in the concentrations of interest; • (b) positive control group: […] of culture medium were added (100% of cell proliferation); • (c) negative control group: 200 mL of culture medium and […] of the vehicle used were added to dilute the compounds (without cells—zero proliferation); • (d) control group: […] were added of the vehicle used to dilute the compounds. This group is important to evaluate whether the vehicle used interferes in the cell proliferation. OBSERVATION: the treatment with the concentrations of samples (test compounds) and of the controls are carried out in triplicate. Incubate the plate for 72 hours in a CO2 kiln at 37° C. After the incubation period, add […]/well of the solution with DNA marker from the CYQuant Kit and incubate the plate, for 60 minutes, in a CO2 incubator at 37° C. The fluorescence intensity is determined using a fluorescence microplate reader with 485 nm excitation and 530 nm emission detection. The results obtained were normalized relative to the positive control group (100% proliferation). For the compounds there are prepared the storage solutions in the concentrations of: 100 nM, 1 μM, 3 μM, 5 μM, 10 μM and 30 μM (DMSO 10% v/v). While the final concentrations in the test are of: 10 nM, 100 nM, 300 nM, 500 nM, 1000 nM and 3000 nM (in DMSO 1% v/v).

[2] = system: DU145-human prostate cancer; experiment: Antiproliferative effect in tumor cell culture (CYQuant intracellular DNA, 72 hours), DU145; type: cell-based; settings: for % Cell Proliferation Inhibition (intracellular DNA) DU145 (average ± E.P.M.): 72 hours
Procedure: as §1

[3] = system: PC3-human prostate cancer cells; experiment: Antiproliferative effect in tumor cell culture (CYQuant intracellular DNA, 72 hours), PC3; type: cell-based; settings: for % Cell Proliferation Inhibition (intracellular DNA) PC-3 (average ± E.P.M.): 72 hours
Procedure: as §1

PDE5A1 enzyme = biological target: T1, PDE5A1 enzyme (Homo sapiens, UniProt O76074); experiment: In vitro inhibition of human phosphodiesterase enzyme 5 (BPS Bioscience PDE5A1 assay kit, fluorescence polarization); type: biochemical
T1 construct: purchased BPS Bioscience 60350
Procedure: The evaluation of the compound is studied using BPS Bioscience enzyme assay kit (catalogue 60350). The PDE5A1 Assay kit is designed for identification of PDE5A1 inhibitors using fluorescence polarization. The assay is based on the binding of a fluorescent nucleotide monophosphate generated by PDE5A1 enzyme to the binding agent.
In this methodology only two simple steps on a microtiter plate are required for PDE5A1 reactions. First, the fluorescently labeled cGMP is incubated with PDE5A1 for 1 hour. Second, the binding agent is added to the reaction mixture to produce a change in fluorescent polarization that can then be measured using a fluorescence reader equipped for the measurement of fluorescence polarization.
For the assay the storage reagent FAM-Cyclic-3′, 5′-GMP (20 μM) is diluted with PDE assay buffer to achieve the solution with a […] concentration; the PDE5A1 enzyme is thawed and diluted with the PDE buffer obtaining a PDE5A1 solution at 10 pg/mL.
The assay compounds are diluted with DMSO 100% (v/v) at a concentration of 1000 μM and subsequently diluted in a Sodium chloride 0.9% solution to obtain a curve of concentrations of interest for the assay. The compounds are diluted in concentrations of: 10 nM, 30 nM, 50 nM, 100 nM, 300 nM, 500 nM, 1 μM, 3 μM, 5 μM (DMSO 10% v/v).
The study is comprised of groups: (i) substrate control; (ii) positive control (KIT); (iii) samples in several concentrations; (iv) tadalafil (comparative control). Each parameter (group) is triple labeled.
For the 4 groups there is added, to each microplate well, […] of the FAM-Cyclic-3′ reagent, 5′-GMP (200 μM).
To the substrate control group there is added, to each well, […] of vehicle (DMSO 10% v/v) and […] PDE Buffer.
To the positive control group there is added, to each well, […] of vehicle (DMSO 10% v/v).
To the tadalafil group: there is added […] of the solution in the concentrations of interest.
To the test group there is added […] of the sample solution (test compound)
OBSERVATION: the parameters tested are in triplicate.
To begin the reaction, add […] of the PDE5A1 enzyme (diluted as described above) to the microplate wells designated as Positive Control and Samples (test and tadalafil), and incubate the microplate, for 1 hour, at a temperature of 25° C.
After the incubation period, the reaction is interrupted by the addition, in all the wells, of […] of the binding agent solution and the microplate is incubated for 30 minutes, under light stirring, at room temperature. The reading of the microplate is carried out in Polarized Fluorescence (475-495 nm—excitation and 518-538 nm—emission detection) 500 nanoseconds integration time.

[4] = system: RT4-human bladder cancer cells; experiment: Antiproliferative effect in tumor cell culture (CYQuant intracellular DNA, 72 hours), RT4; type: cell-based; settings: for % Cell Proliferation Inhibition (intracellular DNA) RT4 (average ± E.P.M.): 72 hours
Procedure: as §1

[5] = system: MNK45-human gastric cancer; experiment: Antiproliferative effect in tumor cell culture (CYQuant intracellular DNA, 72 hours), MNK45; type: cell-based
Procedure: as §1

- % of Inhibition (PDE5A1) (PDE5A1 enzyme; 10 nM): 0%
- concentration as from which PDE5 inhibition was observed (PDE5A1 enzyme; 10 nM to 5000 nM tested): ≥ 300 nM
- % of Inhibition (PDE5A1) (PDE5A1 enzyme; 30 nM): 0%
- % of Inhibition (PDE5A1) (PDE5A1 enzyme; 50 nM): 0%
- % of Inhibition (PDE5A1) (PDE5A1 enzyme; 100 nM): 0%
- % of Inhibition (PDE5A1) (PDE5A1 enzyme; 300 nM): 15 ± 3%
- % of Inhibition (PDE5A1) (PDE5A1 enzyme; 500 nM, 0.5 µM): 25 ± 3%
- % of Inhibition (PDE5A1) (PDE5A1 enzyme; 1000 nM, 1 µM): 55 ± 4%
- % of Inhibition (PDE5A1) (PDE5A1 enzyme; 3000 nM, 3 µM): 65 ± 2%
- % of Inhibition (PDE5A1) (PDE5A1 enzyme; 5000 nM): 78 ± 1%
SMILES: CC(CO)N1CC(=O)N2C(=C(c3c[nH]c4ccccc34)OC2c2ccc3c(c2)OCO3)C1=O (mixture of isomers) [BL-380, (R)-3-(benzo[d][1,3]dioxol-5-yl) -7-((R)-1-hydroxypropan-2-yl)-1-(1H-indole-3-yl)-6,7-dihydro-3H-oxazole[3,4-a]pyrazine-5,8-dione with (S)-3-(benzo[d][1,3]dioxol-5-yl)-7-((R)-1-hydroxypropan-2-yl)-1-(1H-indole-3-yl)-6,7-dihydro-3H-oxazole[3,4-a]pyrazine-5,8-dione]
- % Cell Proliferation Inhibition (intracellular DNA) LNCAP (average ± E.P.M.) ([1]; 10 nM, 0.01 µM): 26 ± 10%
- % Cell Proliferation Inhibition (intracellular DNA) LNCAP (average ± E.P.M.) ([1]; 100 nM, 0.1 µM): 12 ± 3%
- % Cell Proliferation Inhibition (intracellular DNA) LNCAP (average ± E.P.M.) ([1]; 300 nM, 0.3 µM): 29 ± 6%
- % Cell Proliferation Inhibition (intracellular DNA) LNCAP (average ± E.P.M.) ([1]; 500 nM, 0.5 µM): 27 ± 2%
- % Cell Proliferation Inhibition (intracellular DNA) LNCAP (average ± E.P.M.) ([1]; 1000 nM, 1 µM): 37 ± 2%
- % Cell Proliferation Inhibition (intracellular DNA) LNCAP (average ± E.P.M.) ([1]; 3000 nM): 48 ± 6%
- antiproliferative effect, result in words ([1]; LNCAP prostate cancer tumor lineage): antiproliferative effect
- % Cell Proliferation Inhibition (intracellular DNA) DU145 (average ± E.P.M.) ([2]; 100 nM, 0.1 µM): 12 ± 4%
- % Cell Proliferation Inhibition (intracellular DNA) DU145 (average ± E.P.M.) ([2]; 300 nM, 0.3 µM): 10 ± 5%
- % Cell Proliferation Inhibition (intracellular DNA) DU145 (average ± E.P.M.) ([2]; 500 nM, 0.5 µM): 12 ± 2%
- % Cell Proliferation Inhibition (intracellular DNA) DU145 (average ± E.P.M.) ([2]; 1000 nM, 1 µM): 10 ± 3%
- % Cell Proliferation Inhibition (intracellular DNA) DU145 (average ± E.P.M.) ([2]; 3000 nM, 3 µM): 31 ± 5%
- antiproliferative effect, result in words ([2]; DU145 prostate cancer tumor lineage): antiproliferative effect
- % Cell Proliferation Inhibition (intracellular DNA) PC-3 (average ± E.P.M.) ([3]; 10 nM, 0.01 µM): 39 ± 6%
- % Cell Proliferation Inhibition (intracellular DNA) PC-3 (average ± E.P.M.) ([3]; 100 nM, 0.1 µM): 25 ± 5%
- % Cell Proliferation Inhibition (intracellular DNA) PC-3 (average ± E.P.M.) ([3]; 300 nM, 0.3 µM): 28 ± 2%
- % Cell Proliferation Inhibition (intracellular DNA) PC-3 (average ± E.P.M.) ([3]; 500 nM, 0.5 µM): 48 ± 6%
- % Cell Proliferation Inhibition (intracellular DNA) PC-3 (average ± E.P.M.) ([3]; 1000 nM, 1 µM): 40 ± 3%
- % Cell Proliferation Inhibition (intracellular DNA) PC-3 (average ± E.P.M.) ([3]; 3000 nM): 54 ± 4%
- antiproliferative effect, result in words ([3]; PC3 prostate cancer tumor lineage): antiproliferative effect
- PDE5 inhibition, result in words (PDE5A1 enzyme; over the concentrations tested): capable of inhibiting the PDE5 in a dose-dependent manner
- % Cell Proliferation Inhibition (intracellular DNA) RT4 (average ± E.P.M.) ([4]; 100 nM, 0.1 µM): 8 ± 6%
- % Cell Proliferation Inhibition (intracellular DNA) RT4 (average ± E.P.M.) ([4]; 300 nM, 0.3 µM): 5 ± 5%
- % Cell Proliferation Inhibition (intracellular DNA) RT4 (average ± E.P.M.) ([4]; 500 nM, 0.5 µM): 3 ± 5%
- % Cell Proliferation Inhibition (intracellular DNA) RT4 (average ± E.P.M.) ([4]; 1000 nM, 1 µM): 3 ± 1%
- % Cell Proliferation Inhibition (intracellular DNA) RT4 (average ± E.P.M.) ([4]; 3000 nM, 3 µM): 58 ± 4%
- antiproliferative effect, result in words ([4]; RT4 bladder cancer tumor lineage): antiproliferative effect
- % Cell Proliferation Inhibition (intracellular DNA) MNK45 (average ± E.P.M.) ([5]; 100 nM, 0.1 µM): 7 ± 2%
- % Cell Proliferation Inhibition (intracellular DNA) MNK45 (average ± E.P.M.) ([5]; 300 nM, 0.3 µM): 0%
- % Cell Proliferation Inhibition (intracellular DNA) MNK45 (average ± E.P.M.) ([5]; 500 nM, 0.5 µM): 0%
- % Cell Proliferation Inhibition (intracellular DNA) MNK45 (average ± E.P.M.) ([5]; 1000 nM, 1 µM): 0%
- % Cell Proliferation Inhibition (intracellular DNA) MNK45 (average ± E.P.M.) ([5]; 3000 nM, 3 µM): 16 ± 5%

SMILES: CN1CC(=O)N2[C@H](c3ccc4c(c3)OCO4)c3[nH]c4ccccc4c3C[C@@H]2C1=O [Tadalafyl, tadalafil, reference compound]
- inhibition at 5 µM (PDE5A1 enzyme; read-out: % of Inhibition (PDE5A1)): 96 ± 2%
